Laboratory results reported in US7919274B2, “Light-emitting fusion proteins and diagnostic and therapeutic methods therefor” (Dana-Farber Cancer Institute, Inc., priority 2001, dated 2011).
Ends that are not written are not given here.

What was measured:
HeLa cells = assay: Luciferase activity in transiently transfected HeLa cells; format: cell-based
Method: To begin to ask whether the ODD-Luc was oxygen sensitive in cells, transient transfection assays were performed. In the first set of experiments, 100 mm tissue culture plates were seeded with 8×10^5 HeLa cells per plate. Eighteen hours later the cells were transiently transfected, using lipofectamine (Gibco), with the pcDNA3 plasmids encoding ODD-Luc or wild-type Luc along with an internal control plasmid encoding Renilla luciferase. Twenty-four hours after transfection the cells were split into 6 well plates and allowed to adhere and grow for 8-12 hours. At this point the hypoxia mimetics desferrioxamine (DFO) or cobalt chloride (CoCl2) were added directly to the media at final concentrations of 500 μM and 200 μM respectively, in duplicate wells. In addition, some wells were not treated so as to serve as controls. 12 hours after treatment with DFO and CoCl2 the cells were lysed with Passive Lysis Buffer (Promega), rocked at room temperature for 20 minutes, and assayed for Firefly and Renilla Luciferase according to the manufacturers instructions. Results were obtained in duplicate and averaged. (FIG. 17). Luciferase activity in HeLa cells containing pcDNA3 plasmids encoding wild-type Luc are presented in the first three bars from the left; while luciferase activity in HeLa cells containing pcDNA3 plasmids encoding ODD-Luc are presented in the fourth through sixth bars from the left.

[1] = target: T1, pVHL (GST-VHL, elongin B, elongin C complex) (Homo sapiens, UniProt P40337); assay: VBC-GST pulldown of 35S-labeled in vitro translated proteins; format: binding
T1 construct: made in house; host or cells: E. coli

[2] = system: Hela cells xenograft tumors; assay: Imaging of ODD-Luc in xenograft tumors in nude mice; format: in vivo; conditions: subcutaneous Hela tumors, versus Luc sites
Method: Polyclonal Hela cells stably transfected with ODD-Luc and Luc were generated. The clones were suspended in PBS and counted. 10^6 cells per injection site were administered subcutaneously in duplicate into the flanks of nude mice (FIG. 18). Upon growth of palpable tumors (approximately 3-4 days) the mice were given intraperitoneal injections of phenobarbital for anesthesia, injected with a weight-adjusted dose of luciferin, and whole body imaged with a Xenogen Camera. To ensure that the difference in luciferase activity was not simply a function of tumor size alone, bidimensional tumor measurements were taken and were approximately equal.

[3] = Luciferase activity of in vitro translate; format: biochemical; conditions: versus wild-type luciferase
HA-pVHL bound HIF = target: T2, HA-pVHL bound HIF (Homo sapiens, UniProt P40337); assay: Peptide elution of HIF coimmunoprecipitated with HA-pVHL from ts20 cells; format: binding; conditions: 7 μg peptide in 65 μl PBS
T2 construct: expressed in transfected cells; host or cells: ts20 cells stably transfected with pIRES-HA-VHL, G418-selected
Method: Individual G418-resistant colonies were isolated using cloning cylinders and expanded. Cells producing HA-VHL or HA-VHL (Y98H) were identified by anti-HA immunoblot analysis. […] For the tests shown in FIG. 5C, ts20 cells were grown at the restrictive or permissive temperature for 14 hours, methionine-starved for 90 min, and then grown in the methionine-free media supplemented with ^35S-met ([…]) for 90 min.

[4] = In vitro degradation assay with xenopus egg extracts; format: biochemical; conditions: room temperature
Method: Xenopus egg extracts were made as is well known in the art and stored frozen until use. Degradation reactions contained 8 μl of egg extract, 0.1 μl of 100 mg/ml cyclohexamide, 0.25 μl of energy regeneration mix, 0.25 μl of bovine ubiquitin, and 0.4 μl of ^35S-radiolabeled HIF and were carried out at room temperature. At the indicated timepoints 1 μl aliquots were removed and placed in sample buffer. Samples were resolved on 5-15% gradient gels and analyzed by autoradiography. Biotinylated HIF (556-575) peptides were incubated with rabbit reticulocyte lysate, washed, eluted with free biotin, and analyzed by mass spectrometry. 1 μg of HPLC-purified peptide was bound to 30 μl monomeric avidin Sepharose and incubated with 100 μl of rabbit reticulocyte lysate at room temperature for 1 hour with tumbling. Following brief centrifugation the reticulocyte lysate was removed, fresh reticulocyte lysate was added, and the cycle was repeated 6 times. The Sepharose was then washed 4 times with NETN and once with PBS. The modified peptide was eluted in 50 μl of 20 mM ammonium acetate [pH 7.0], 2 mM biotin. […] This peak was not detectable prior to incubation with reticulocyte lysate and was not detected in the corresponding reticulocyte-treated Leu562Ala and Pro564Ala peptides (FIG. 6A). […] Following visualization of standards with ninhydrin radiolabeled proline was detected by autoradiography. […]

COS7 cells = assay: Anti-HA immunoblot of transiently transfected COS7 cells; format: cell-based
Method: (A) depicts in vitro ubiquitination of ^35S-labeled wild-type, Leu562A, and Pro564A Gal4-HA-HIF1α (530-652) in the presence of S100 extracts prepared from pVHL-defective renal carcinoma cells stably transfected to produce wild-type pVHL or with empty vector. […] (C) is an anti-HA immunoblot analysis of COS7 cells transiently transfected with 1.5 or 3.5 μg of plasmids encoding wild-type or P564A HA-HIF1α in the absence or presence of desferoxamine.

[5] = system: TETo-driven luciferase reporter plasmid (pUHC13-3); assay: TETr-fusion transcriptional luciferase reporter gene assay in U2OS cells; format: cell-based, human; conditions: pUHC13-3 reporter
Method: (A) is a schematic of reporter plasmid (pUHC 13-3) that contains seven TETracycline operator sequences (TETo) upstream of a minimal CMV promoter that includes a TATA box. (B, C) show U2OS cells were cotransfected with plasmids encoding the indicated TETr fusion proteins along with the pUHC 13-3 reporter plasmid and a plasmid encoding β-galactosidase. Numbers shown at the bottom of the graph indicate the amount of TETr plasmid (in μg). 48 hours later luciferase activity, normalized for β-galactosidase, was determined. Fold repression is the corrected luciferase value for TETr alone divided by the corrected luciferase values for the indicated TETr fusion proteins. Fold activation represents the corrected luciferase values for the indicated TETr fusion proteins divided by the corrected luciferase value for TETr alone. […]
For TETr-fusion transcriptional assay, subconfluent U2OS cells were transiently transfected in 6-well plates in duplicate with 1 μg of […], 1 μg of pUHC13-3 reporter plasmid, and 3 μg of the indicated plasmids encoding TETr-fusion proteins. […] 48 hours after transfection luciferase activity and β-galactosidase activity was determined as described previously (Qin, 1995).

pRB = pRB phosphorylation in pRB-defective SAOS-2 cells; format: cell-based, human; conditions: cointroduced with HA-tagged pRB into SAOS-2 cells
Method: FIG. 8 illustrates the production of TETr-cyclins A and E. (A) is a schematic of TETr-cyclin fusion protein. […] The % of transfected cells in G1 and S phase was determined by fluororescence activated cell sorting (FACS).
(§1) FIG. 11 illustrates that cyclin box is required for transcriptional repression by DNA bound cyclin A. (A) U2OS cells were cotransfected with plasmids encoding the indicated TETr-cyclin A variants along with the pUHC 13-3 reporter plasmid and a plasmid encoding β-galactosidase. Cell extracts were prepared and luciferase activity, corrected for β-galactosidase activity, was expressed as fold repression relative to cells producing TETr alone. (B) The indicated TETr-cyclin A variants were translated in vitro in the presence of ^35S-methionine and incubated with GST-cdk2 and glutathione Sepharose. […] In parallel, 20% of the input proteins were resolved by SDS-polyacrylamide gel electrophoresis and detected by autoradiography. (c) pRB defective SAOS-2 cells transfected so as to produce HA-tagged pRB along with the indicated TETr-cyclin A variants were lysed and immunoblotted with anti-HA antibody.

cdk2 = target: T3, cdk2 (Homo sapiens, UniProt P24941); assay: GST pull-down assay with GST-cdk2; format: binding; conditions: 35S-labeled in vitro translates
T3 construct: made in house
Method: as §1
Glutathione S-transferase pull-down assays were performed basically as described previously (Kaelin et al., 1991). Binding reactions contained 10 μl of ^35S-radiolabelled in vitro translates made with a TNT kit (Promega) and approximately 1 μg of the indicated GST fusion protein in 1 ml of NETN (20 mM Tris [pH 8], 100 mM NaCl, 1 mM EDTA, 0.5% Nonidet P-40). Following 1 hour incubation at 4° C. with rocking, the Sepharose was washed 5 times with NETN. […]

T1 sequence (P40337 whole entry): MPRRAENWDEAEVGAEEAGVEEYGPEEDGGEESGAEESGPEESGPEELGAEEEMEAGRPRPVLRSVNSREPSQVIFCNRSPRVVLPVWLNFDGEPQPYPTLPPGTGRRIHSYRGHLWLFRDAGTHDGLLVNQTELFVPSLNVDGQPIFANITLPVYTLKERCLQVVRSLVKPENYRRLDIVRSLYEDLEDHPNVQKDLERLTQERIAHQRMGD
T1 sequence (Q15370 whole entry partner): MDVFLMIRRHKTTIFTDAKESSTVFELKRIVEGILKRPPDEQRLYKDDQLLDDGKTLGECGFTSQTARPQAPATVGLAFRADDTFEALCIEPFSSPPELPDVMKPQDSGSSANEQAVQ
T1 sequence (Q15369 whole entry partner): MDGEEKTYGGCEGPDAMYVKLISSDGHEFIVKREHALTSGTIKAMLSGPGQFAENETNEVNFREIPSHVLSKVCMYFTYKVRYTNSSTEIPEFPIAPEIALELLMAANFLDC
T2 sequence (P40337 whole entry): as the sequence (P40337 whole entry) above
T2 sequence (P62869 whole entry partner): as the sequence (Q15370 whole entry partner) above, with D40E, C89R, S110G counted along it
T2 sequence (P83940 whole entry partner): as the sequence (Q15369 whole entry partner) above

ODD-Luc: Firefly luciferase fused in-frame to HIF1α amino acids 555-575 (ODD) (TDLDLEMLAPYIPMDDDFQLR; also: fused to firefly luciferase (not shown))
induced luciferase levels versus wild-type luciferase (HeLa cells; after addition of hypoxia-mimetics): comparable | luciferase values relative to wild-type Luc (HeLa cells; untreated HeLa cells grown in the presence of oxygen): approximately 30% | binding of pVHL (GST-VBC pulldown) ([1]; translated in vitro in rabbit reticulocyte lysate): bound | binding of pVHL (GST-VBC pulldown) ([1]; wheat germ produced): did not bind | luciferase signal at injection sites (whole body imaging) [2]: attenuated luciferase signal | luciferase activity in vitro [3]: comparable to wild-type luciferase

HIF (556-575) Pro564Ala peptide: HIF (556-575) peptide with Pro564Ala substitution (DLDLEMLAAYIPMDDDFQLR)
elution of HIF bound to HA-pVHL (HA-pVHL bound HIF): not eluted

HIF1α Pro564Ala: HIF1α with Proline 564 converted to alanine
stability relative to wild-type HIF1α [4]: far more stable | sensitivity to the hypoxia-mimetic desferoxamine (COS7 cells): insensitive

Cyclin A (1-310): cyclin A fragment 1-310 fused to TETr
transcriptional effect on TETo-driven luciferase reporter [5]: repressed transcription | pRB phosphorylation (pRB): cannot direct the phosphorylation of pRB | binding to cdk2 (cdk2): does not bind to cdk2

HIF1α Leu562Ala: HIF1α with Leu562Ala mutation
stability relative to wild-type HIF1α [4]: far more stable
